Test results: PubChem BioAssay AID248 (DTP/NCI, 2004)
“And” between values parts separate entries of the source, which are not always exact repeats. Identical values can stand only once. Inconclusive results and toxic doses are left out. No stated cut-off is given here; in the data, active means T/C of 150% or more; inactive means T/C below 125%.

Test system: L1210 leukemia ip in BDF1 mice, survival T/C
Assay: NCI In Vivo Anticancer Drug Screen. Data for tumor model L1210 Leukemia (intraperitoneal) in B6D2F1 (BDF1) mice
Details: endpoint: mean survival time, higher = longer survival
Method in brief: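 Antitumor effect is assessed in tumor-bearing animals. Survival in the compound arm is compared with a vehicle-dosed control arm and expressed as their quotient.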

[1] = dose: 100.0 mg/kg/injection, schedule: Q01DX001 (ip), vehicle: saline
[2] = dose: 100.0 mg/kg/injection, schedule: Q01DX001 (ip), vehicle: carboxymethylcellulose (CMC)
[3] = dose: 200.0 mg/kg/injection, schedule: Q01DX001 (ip), vehicle: carboxymethylcellulose (CMC)
[4] = dose: 400.0 mg/kg/injection, schedule: Q01DX001 (ip), vehicle: carboxymethylcellulose (CMC)
[5] = dose: 100.0 mg/kg/injection, schedule: Q04DX003 (ip), vehicle: other
[6] = dose: 100.0 mg/kg/injection, schedule: Q01DX009 (ip), vehicle: Klucel (hydroxypropylcellulose) (HPC)
[7] = dose: 200.0 mg/kg/injection, schedule: Q01DX009 (ip), vehicle: Klucel (hydroxypropylcellulose) (HPC)
[8] = dose: 400.0 mg/kg/injection, schedule: Q01DX009 (ip), vehicle: Klucel (hydroxypropylcellulose) (HPC)
[9] = dose: 200.0 mg/kg/injection, schedule: Q01DX001 (ip), vehicle: saline
[10] = dose: 400.0 mg/kg/injection, schedule: Q01DX001 (ip), vehicle: saline

Measured: T/C

OC(c1ccccc1)c1ccccn1 (configuration not stated)
inactive: dose: 100.0 mg/kg/injection, schedule: Q04DX003 (ip), vehicle: saline 92 % of control | dose: 200.0 mg/kg/injection, schedule: Q04DX003 (ip), vehicle: saline 115 % of control | dose: 400.0 mg/kg/injection, schedule: Q04DX003 (ip), vehicle: saline 101 % of control

COc1c(OC)c2c3c(c(-c4c(C)cc5c(C(C)C)c(OC)c(OC)c6c5c4OC6=O)c(C)cc3c1C(C)C)OC2=O
inactive: dose: 75.0 mg/kg/injection, schedule: Q04DX003 (ip), vehicle: Klucel (hydroxypropylcellulose) (HPC) 105 % of control | dose: 150.0 mg/kg/injection, schedule: Q04DX003 (ip), vehicle: Klucel (hydroxypropylcellulose) (HPC) 92 % of control | dose: 300.0 mg/kg/injection, schedule: Q04DX003 (ip), vehicle: Klucel (hydroxypropylcellulose) (HPC) 92 % of control

CC(=O)OCCN1CCN(CCCN2c3ccccc3Sc3ccc(C(F)(F)F)cc32)CC1
inactive: dose: 9.5 mg/kg/injection, schedule: Q04DX003 (ip), vehicle: saline with Tween-80 114 % of control | dose: 12.5 mg/kg/injection, schedule: Q04DX003 (ip), vehicle: saline 106 % of control | dose: 22.0 mg/kg/injection, schedule: Q04DX003 (ip), vehicle: saline with Tween-80 120 % of control and 123 % of control | dose: 25.0 mg/kg/injection, schedule: Q04DX003 (ip), vehicle: saline 116 % of control | dose: 33.0 mg/kg/injection, schedule: Q04DX003 (ip), vehicle: saline sonified 93 % of control | dose: 33.3 mg/kg/injection, schedule: Q04DX003 (ip), vehicle: saline with Tween-80 102 % of control | [1] 106 % of control
active: dose: 50.0 mg/kg/injection, schedule: Q04DX003 (ip), vehicle: saline with Tween-80 150 % of control

O=C(c1ccc(O)cc1O)c1ccc(O)cc1O
inactive: dose: 50.0 mg/kg/injection, schedule: Q04DX002 (ip), vehicle: gum acacia 114 % of control | dose: 100.0 mg/kg/injection, schedule: Q04DX002 (ip), vehicle: gum acacia 104 % of control | dose: 200.0 mg/kg/injection, schedule: Q04DX002 (ip), vehicle: gum acacia 86 % of control

O=C(O)c1ccc(O)cn1
inactive: [2] 93 % of control | [3] 95 % of control | [4] 95 % of control

CC1CC(C)(C)NC(=O)O1 (configuration not stated)
inactive: dose: 25.0 mg/kg/injection, schedule: Q01DX009 (ip), vehicle: other 93 % of control | dose: 25.0 mg/kg/injection, schedule: Q04DX003 (ip), vehicle: other 90 % of control | dose: 50.0 mg/kg/injection, schedule: Q01DX009 (ip), vehicle: other 92 % of control | dose: 50.0 mg/kg/injection, schedule: Q04DX003 (ip), vehicle: other 89 % of control | dose: 100.0 mg/kg/injection, schedule: Q01DX001 (ip), vehicle: other 103 % of control | dose: 100.0 mg/kg/injection, schedule: Q01DX009 (ip), vehicle: other 92 % of control | [5] 90 % of control

C=C(Br)CN(C)C
inactive: dose: 50.0 mg/kg/injection, schedule: Q01DX009 (ip), vehicle: saline with Tween-80 117 % of control | dose: 100.0 mg/kg/injection, schedule: Q04DX003 (ip), vehicle: saline with Tween-80 96 % of control | dose: 200.0 mg/kg/injection, schedule: Q04DX003 (ip), vehicle: saline with Tween-80 102 % of control

Cc1ccc(S(=O)(=O)OCCN(CCOS(=O)(=O)c2ccc(C)cc2)c2ccc(N=O)cc2)cc1
inactive: dose: 50.0 mg/kg/injection, schedule: Q01DX001 (ip), vehicle: saline 115 % of control | [1] 124 % of control

O=C(Nc1cccc(C(F)(F)F)c1)c1ccco1
inactive: [6] 93 % of control | dose: 100.0 mg/kg/injection, schedule: Q04DX002 (ip), vehicle: Klucel (hydroxypropylcellulose) (HPC) 106 % of control | [7] 96 % of control | dose: 200.0 mg/kg/injection, schedule: Q04DX002 (ip), vehicle: Klucel (hydroxypropylcellulose) (HPC) 95 % of control | [8] 109 % of control | dose: 400.0 mg/kg/injection, schedule: Q04DX002 (ip), vehicle: Klucel (hydroxypropylcellulose) (HPC) 104 % of control

O=C(COc1ccc(Br)cc1Br)OCCCl
inactive: [1] 100 % of control | [9] 117 % of control | [10] 103 % of control

NC(CSS(=O)(=O)O)=NCCc1c[nH]c(=S)[nH]1
inactive: dose: 12.5 mg/kg/injection, schedule: Q04DX002 (ip), vehicle: Klucel (hydroxypropylcellulose) (HPC) 107 % of control | dose: 25.0 mg/kg/injection, schedule: Q04DX002 (ip), vehicle: Klucel (hydroxypropylcellulose) (HPC) 91 % of control

O=C(CCCN1CCC2(CC1)C(=O)NCN2c1ccccc1)c1cccs1
inactive: dose: 3.13 mg/kg/injection, schedule: Q01DX009 (ip), vehicle: saline with Tween-80 95 % of control | dose: 6.25 mg/kg/injection, schedule: Q01DX009 (ip), vehicle: saline with Tween-80 94 % of control | dose: 6.25 mg/kg/injection, schedule: Q04DX003 (ip), vehicle: saline with Tween-80 102 % of control | dose: 12.5 mg/kg/injection, schedule: Q01DX009 (ip), vehicle: saline with Tween-80 89 % of control | dose: 12.5 mg/kg/injection, schedule: Q04DX003 (ip), vehicle: saline with Tween-80 95 % of control

Nc1ncnc2c1ncn2C1OC(CO)C(NC(=O)C(CCCCNC(=O)OCc2ccccc2)NC(=O)OCc2ccccc2)C1O (configuration not stated)
inactive: [1] 102 % of control | [9] 100 % of control | [10] 100 % of control

COc1ccc(C(Nc2ccc([N+](=O)[O-])cc2)P(=O)(c2ccccc2)c2ccccc2)cc1 (configuration not stated)
inactive: dose: 100.0 mg/kg/injection, schedule: Q01DX009 (ip), vehicle: saline 102 % of control | dose: 200.0 mg/kg/injection, schedule: Q01DX009 (ip), vehicle: saline 95 % of control | dose: 400.0 mg/kg/injection, schedule: Q01DX009 (ip), vehicle: saline 106 % of control

CSc1nnc2c3ccccc3ccn12
inactive: [2] 104 % of control | [3] 96 % of control | [4] 93 % of control

O=CNNc1ccc([N+](=O)[O-])cc1
inactive: dose: 50.0 mg/kg/injection, schedule: Q01DX009 (ip), vehicle: Klucel (hydroxypropylcellulose) (HPC) 97 % of control | [6] 100 % of control | dose: 100.0 mg/kg/injection, schedule: Q04DX003 (ip), vehicle: Klucel (hydroxypropylcellulose) (HPC) 94 % of control | [7] 86 % of control | dose: 200.0 mg/kg/injection, schedule: Q04DX003 (ip), vehicle: Klucel (hydroxypropylcellulose) (HPC) 94 % of control | dose: 400.0 mg/kg/injection, schedule: Q04DX003 (ip), vehicle: Klucel (hydroxypropylcellulose) (HPC) 94 % of control

OC1CCC2C3CC=CC3C12 (configuration not stated)
inactive: dose: 75.0 mg/kg/injection, schedule: Q01DX001 (ip), vehicle: other 93 % of control | dose: 150.0 mg/kg/injection, schedule: Q01DX001 (ip), vehicle: other 98 % of control | dose: 300.0 mg/kg/injection, schedule: Q01DX001 (ip), vehicle: other 106 % of control

O=[N+]([O-])c1ccc(N2CCCC2)cc1
inactive: dose: 100.0 mg/kg/injection, schedule: Q01DX001 (ip), vehicle: Klucel (hydroxypropylcellulose) (HPC) 97 % of control | dose: 200.0 mg/kg/injection, schedule: Q01DX001 (ip), vehicle: Klucel (hydroxypropylcellulose) (HPC) 105 % of control | dose: 400.0 mg/kg/injection, schedule: Q01DX001 (ip), vehicle: Klucel (hydroxypropylcellulose) (HPC) 108 % of control

O=C1OC(/C=C/c2ccccc2)=NC/1=C\c1ccccc1
inactive: dose: 100.0 mg/kg/injection, schedule: Q04DX002 (ip), vehicle: saline with Tween-80 92 % of control | dose: 200.0 mg/kg/injection, schedule: Q04DX002 (ip), vehicle: saline with Tween-80 95 % of control | dose: 400.0 mg/kg/injection, schedule: Q04DX002 (ip), vehicle: saline with Tween-80 92 % of control

CCOC(=O)C(C(C)=O)C(CCc1cc(OC)ccc1OC)C(C(C)=O)C(=O)OCC (configuration not stated)
inactive: [1] 109 % of control | [9] 101 % of control | [10] 97 % of control

CSc1ncc2ncn(C3OC(CO)C(O)C3O)c2n1 (configuration not stated)
inactive: [2] 108 % of control | [6] 91 % of control | [5] 110 % of control | [3] 102 % of control | [7] 98 % of control | dose: 200.0 mg/kg/injection, schedule: Q04DX003 (ip), vehicle: other 95 % of control | [4] 98 % of control | [8] 89 % of control | dose: 400.0 mg/kg/injection, schedule: Q04DX003 (ip), vehicle: other 100 % of control

ClC(Cl)(Cl)c1cccc(-c2nc(NCCCN3CCCC3)nc(C(Cl)(Cl)Cl)n2)c1
inactive: [6] 102 % of control | [7] 100 % of control | [8] 86 % of control
